Laboratory results reported in paper PMC3927474, “Whole body synthesis rates of DHA from α-linolenic acid are greater than brain DHA accretion and uptake rates in adult rats” (Journal of Lipid Research, 2014).

Legend:
Test in all cases: Brain gene expression (TLDA qPCR)
Type in all cases: in vivo, rat
Conditions in all cases: 15 wk diet; control diet = 1
[1] = system: β-actin
Protocol: (§1) RNA was extracted from the flash-frozen half brains of the 15 week postweaning rats. The brain was briefly thawed and dissected to isolate the brainstem, cerebellum, cortex, hippocampus, striatum, and the rest of the brain. RNA was extracted from the brain regions using Trizol reagent (Ambion; Life Technologies, Burlington, ON, Canada) according to the manufacturer's protocol. […] Chloroform was added to the Trizol reagent at a ratio of 1:5 (chloroform:Trizol reagent) and the solution was mixed and incubated at room temperature. The solution was then centrifuged at 12,000 g for 15 min at 4°C. […] The samples were then centrifuged at 12,000 g for 10 min at 4°C to precipitate the RNA pellet. […] The pellet was allowed to air dry, and was then dissolved in RNase-free water. A Nanodrop 1000 (NanoDrop Technologies Inc., Wilmington, DE) was used to determine the concentration and purity of each sample by measuring absorbance at 260 and 280 nm. Each sample was aliquoted to make 1 μg of RNA per 10 μl of sample and stored at -80°C. A high-capacity cDNA reverse transcription kit (Applied Biosystems, Burlington, ON, Canada) was used to reverse transcribe 1 μg of RNA according to the manufacturer's instructions. Newly synthesized cDNA was stored at -20°C until the following day when it was loaded onto TaqMan low density array (TLDA) plates. Quantitative real-time PCR was performed using TLDA (Applied Biosystems) on the 7900HT real-time PCR system (Applied Biosystems). cDNA (50 ng) was diluted with water to make a volume of 50 μl and mixed with 50 μl of TaqMan Universal PCR Master Mix (Applied Biosystems). The mixture was then loaded onto a customized preconfigured 384-well TLDA plate according to the manufacturer's protocol. TaqMan gene expression assays were used to assess 21 genes that were previously reported to be differentially expressed with n-3 deprivation. […] All genes were normalized to phosphoglycerate kinase 1. Similar results were found when normalizing to β-actin or 18S rRNA.

[2] = system: uncoupling protein 2
Protocol: as §1

[3] = system: COX-2
Protocol: as §1

[4] = system: group 6 iPLA2
Protocol: as §1

[5] = system: prostaglandin E synthase 3
Protocol: as §1

[6] = system: tyrosine hydroxylase
Protocol: as §1

[7] = system: dopamine receptor D2
Protocol: as §1

[8] = system: 15-lipoxygenase
Protocol: as §1

[9] = system: transthyretin
Protocol: as §1

[10] = system: vesicular monoamine transporter 2
Protocol: as §1

[11] = system: retinoic acid receptor α
Protocol: as §1

[12] = system: group 4 cPLA2
Protocol: as §1

[13] = system: α-synuclein
Protocol: as §1

[14] = system: PPARg
Protocol: as §1

[15] = system: group 2a sPLA2
Protocol: as §1

[16] = system: retnoid X receptor β
Protocol: as §1

[17] = system: brain-derived neurotrophic factor
Protocol: as §1

## CC/C=C\C/C=C\C/C=C\CCCCCCCC(=O)O [ALA, α-linolenic acid]
[1]
  Brainstem gene expression: b-actin: 1.11 RQ
  Cerebellum gene expression: b actin: 1.10 RQ
  Cortex gene expression: b actin: 1.05 RQ
  Hippocampus gene expression: B-actin: 1.13 RQ
  Rest of brain gene expression: b actin: 1.00 RQ
  Striatum gene expression: b actin: 1.04 RQ
[2]
  Brainstem gene expression: UCP2: 1.05 RQ
  Cerebellum gene expression: UCP2: 1.17 RQ
  Cortex gene expression: UCP2: 1.04 RQ
  Hippocampus gene expression: UCP2: 1.26 RQ
  Rest of brain gene expression: UCP2: 0.97 RQ
  Striatum gene expression: UCP2: 1.09 RQ
[3]
  Brainstem gene expression: COX 2: 0.87 RQ
  Cerebellum gene expression: COX 2: 1.46 RQ
  Cortex gene expression: COX 2: 1.17 RQ
  Hippocampus gene expression: COX 2: 1.15 RQ
  Rest of brain gene expression: COX 2: 0.92 RQ
  Striatum gene expression: COX 2: 1.04 RQ
[4]
  Brainstem gene expression: iPLA2: 0.89 RQ
  Cerebellum gene expression: iPLA2: 1.02 RQ
  Cortex gene expression: iPLA2: 0.92 RQ
  Hippocampus gene expression: iPLA2: 1.02 RQ
  Rest of brain gene expression: iPLA2: 0.95 RQ
  Striatum gene expression: iPLA2: 0.96 RQ
[5]
  Brainstem gene expression: PGES3: 1.14 RQ
  Cerebellum gene expression: PGES3: 1.09 RQ
  Cortex gene expression: PGES3: 0.91 RQ
  Hippocampus gene expression: PGES3: 1.00 RQ
  Rest of brain gene expression: PGES3: 0.99 RQ
  Striatum gene expression: PGES3: 0.95 RQ
[6]
  Brainstem gene expression: TH: 1.24 RQ
  Cerebellum gene expression: TH: 1.60 RQ
  Cortex gene expression: TH: 1.56 RQ
  Hippocampus gene expression: TH: 1.15 RQ
  Rest of brain gene expression: TH: 1.09 RQ
  Striatum gene expression: TH: 1.12 RQ
[7]
  Brainstem gene expression: DR D2: 0.96 RQ
  Cerebellum gene expression: DR D2: 1.13 RQ
  Cortex gene expression: DR D2: 1.11 RQ
  Hippocampus gene expression: DR D2: 1.27 RQ
  Rest of brain gene expression: DR D2: 1.00 RQ
  Striatum gene expression: DR D2: 1.20 RQ
[8]
  Brainstem gene expression: 15 LOX: 0.91 RQ
  Cerebellum gene expression: 15 LOX: 0.63 RQ
  Cortex gene expression: 15 LOX: 0.77 RQ
  Hippocampus gene expression: 15 LOX: 0.74 RQ
  Rest of brain gene expression: 15 LOX: 0.62 RQ
  Striatum gene expression: 15 LOX: 1.00 RQ
[9]
  Brainstem gene expression: TTR: 0.93 RQ
  Cerebellum gene expression: TTR: 1.75 RQ
  Cortex gene expression: TTR: 0.75 RQ
  Hippocampus gene expression: TTR: 6.67 RQ
  Rest of brain gene expression: TTR: 0.71 RQ
  Striatum gene expression: TTR: 2.37 RQ
[10]
  Brainstem gene expression: VMAT2: 1.34 RQ
  Hippocampus gene expression: VMAT 2: 0.84 RQ
  Rest of brain gene expression: VMAT2: 1.12 RQ
[11]
  Brainstem gene expression: RARa: 1.00 RQ
  Cerebellum gene expression: RARa: 1.07 RQ
  Cortex gene expression: RAR a: 1.03 RQ
  Hippocampus gene expression: RAR a: 0.96 RQ
  Rest of brain gene expression: RAR a: 0.91 RQ
  Striatum gene expression: RARa: 0.93 RQ
[12]
  Brainstem gene expression: cPLA2: 0.98 RQ
  Cerebellum gene expression: cPLA2: 1.17 RQ
  Cortex gene expression: cPLA2: 0.93 RQ
  Hippocampus gene expression: cPLA2: 1.10 RQ
  Rest of brain gene expression: cPLA2: 0.85 RQ
  Striatum gene expression: cPLA2: 1.04 RQ
[13]
  Brainstem gene expression: SNCa: 0.95 RQ
  Cerebellum gene expression: SNCa: 0.96 RQ
  Cortex gene expression: SNCa: 1.08 RQ
  Hippocampus gene expression: SNCa: 1.10 RQ
  Rest of brain gene expression: SNCa: 0.97 RQ
  Striatum gene expression: SNCa: 1.05 RQ
[14]
  Brainstem gene expression: PPARg: 0.91 RQ
  Cerebellum gene expression: PPARg: 1.17 RQ
  Cortex gene expression: PPARg: 1.21 RQ
  Hippocampus gene expression: PPARγ: 0.47 RQ
  Rest of brain gene expression: PPARg: 1.18 RQ
  Striatum gene expression: PPARg: 0.90 RQ
[15]
  Brainstem gene expression: sPLA2: 0.72 RQ
  Cerebellum gene expression: sPLA2: 0.86 RQ
  Cortex gene expression: spla2: 0.85 RQ
  Hippocampus gene expression: sPLA2: 1.08 RQ
  Rest of brain gene expression: sPLA2: 0.67 RQ
  Striatum gene expression: sPLA2: 0.46 RQ
[16]
  Brainstem gene expression: RXRb: 1.15 RQ
  Cerebellum gene expression: RXRb: 1.04 RQ
  Cortex gene expression: RXR b: 1.02 RQ
  Hippocampus gene expression: RXR b: 0.97 RQ
  Rest of brain gene expression: RXR b: 0.91 RQ
  Striatum gene expression: RXRb: 1.10 RQ
[17]
  Brainstem gene expression: BDNF: 0.72 RQ
  Cerebellum gene expression: BDNF: 0.98 RQ
  Cortex gene expression: BDNF: 1.03 RQ
  Hippocampus gene expression: BDNF: 1.03 RQ
  Rest of brain gene expression: BDNF: 0.99 RQ
  Striatum gene expression: BDNF: 1.01 RQ
